Reference: patent US20060052600A1, “Amino-functional chalcones” (priority 2002, published 2006)
≈ marks a conversion by molar mass, not a printed value. Read-outs that look alike come from different tables or passages of the source.

Columns and labels:
L. major promastigotes = assay: Leishmania promastigote assay; conditions: read-out: IC50, effect on L. major
[1] = test system: DHODH (dihydroorotate dehydrogenase); assay: DHODH assay; assay type: biochemical; conditions: test concentration not given
[2] = test system: Plasmodium falciparum 3D7; assay: Plasmodium falciparum assay; assay type: cell-based; conditions: Table 2, read-out: IC50, activity against Plasmodium falciparum 3D7
[3] = test system: panel of non-fastidious bacteria (Gram-positive pathogens and Eschericia coli); assay: Activity against non-fastidious bacteria (panel, results in words)
[4] = Determination of solubility; assay type: physicochemical
Method: Solubility of the compounds was determined by preparing a saturated solution of compound in 0.3 M phosphate buffer (pH 7.4±0.3) in a brown glass tube. The suspensions were rotated slowly for 24 hours. Aliquots were centrifuged for 10 minutes at 14.000 rpm and supernatants were diluted in 40% (v/v) acetonitrile in water prior to HPLC analysis. Concentrations of analytes were quantified against a standard curve and used as term of solubility.
The HPLC-UV method used for the assessment of solubility is the same as used in the in vitro metabolism assay.

[5] = test system: panel of anaerobic bacteria (Bacteroides fragilis, Clostridium perfringens, Clostridium difficele); assay type: cell-based; conditions: single concentration 100 μM
[6] = test system: Staphylococcus aureus ATCC29213; assay: MIC determination in broth microdilution assay
[7] = Determination of metabolic stability (liver microsomes); assay type: in vitro ADME, rat; conditions: for Metabolic turn-over (rat) in vitro: 20 μM, 15 min, 37° C.
Method: Samples were incubated for 15 min at 37° C. and the reactions were terminated by addition of equal volumes of acetonitrile. Blank incubations were performed at the same concentration but without addition of microsomes. Both blank and microsome-containing samples were made in […] of three. […] The fraction of compound metabolised during the 15 min of incubation was determined by comparison of blank and microsome-containing samples using a Waters Alliance 2690 separation module and Waters 996 PDA-detector (Waters. […] This was followed by a 5 minutes linear gradient to initial conditions, which were maintained for 5 min. The flow rate was 0.20 ml/min and injection volume 10 μl.

Eschericia coli ESS = assay: MIC determination in broth microdilution assay
[8] = test system: Streptococcus pneumoniae #998 (clinical isolate); assay: MIC determination in broth microdilution assay
[9] = test system: Enterococcus faecalis ATCC29212; assay: MIC determination in broth microdilution assay
[10] = test system: Staphylococcus aureus ATCC33591 (resistant to methicillin); assay: MIC determination in broth microdilution assay
[11] = test system: Staphylococcus intermedius #2357 (clinical isolate); assay: MIC determination in broth microdilution assay
[12] = test system: Enterococcus faecium #17501 (vancomycin-resistant clinical isolate); assay: MIC determination in broth microdilution assay
S. aureus ATCC29213 = assay: Killing curve determination (time-kill curve); assay type: cell-based, Staphylococcus aureus; conditions: for bactericidal or bacteriostatic action (time-kill curve): CFU per ml at concentrations above the MIC; for MIC: S. aureus ATCC29213
Pharmacokinetic studies = assay type: in vivo, mice
Source text: Samples of serum were taken at defined timepoints.
The supernatant was used for the analysis.

COc1ccc(C(=O)/C=C/c2ccccc2)cc1 [4′MC, 4′methoxy chalcone, reference compound]
IC50 (L. major promastigotes; Leishmania major): 5600 nM
Inhibition of DHODH [1]: 7%
IC50 ([2]; Plasmodium falciparum, 3D7): 40000 nM
antibacterial effect [3]: no antibacterial effect at all
solubility at 24 h ([4]; 0.3 M phosphate buffer, pH 7.4, aqueous buffer, thermodynamic from solid): < 50 µg/mL

CN(C)Cc1ccc(C(=O)/C=C/c2ccc(Cl)cc2Cl)cc1 [A011, (E)-3-(2,4-Dichloro-phenyl)-1-(4-dimethylaminomethyl-phenyl)-propenone]
activity against anaerobic bacteria [5]: activity against all microorganisms within the test panel

CCCCN(CCCC)c1ccc(/C=C/C(=O)c2cccc(CN(C)C)c2)cc1 [A019, (E)-3-(4-Dibutylamino-phenyl)-1-(3-dimethylaminomethyl-phenyl)-propenone]
MIC, A: Staphylococcus aureus ATCC29213 [6]: 9.4 µM (≈ 3.69 µg/mL)
Metabolic turn-over (rat) in vitro [7]: 5%
MIC, H: Eschericia coli ESS (Eschericia coli ESS): 18.8 µM (≈ 7.38 µg/mL)
activity against the ESS strain of E. coli (Eschericia coli ESS): considerable activity
MIC, F: Streptococcus pneumoniae #998 [8]: 18.8 µM (≈ 7.38 µg/mL)
potency against Gram-positive pathogens in comparison with Licochalcone A [3]: increased potency
MIC, D: Enterococcus faecalis ATCC29212 [9]: 9.4 µM (≈ 3.69 µg/mL)
MIC, B: Staphylococcus aureus ATCC33591 [10]: 9.4 µM (≈ 3.69 µg/mL)
MIC, C: Staphylococcus intermedius #2357 [11]: 9.4 µM (≈ 3.69 µg/mL)
MIC, E: Enterococcus faecium #17501 [12]: 9.4 µM (≈ 3.69 µg/mL)
bactericidal or bacteriostatic action (time-kill curve) (S. aureus ATCC29213): bactericidal
MIC (S. aureus ATCC29213): 9.4 µM (≈ 3.69 µg/mL)
dependence of the bactericidal action (S. aureus ATCC29213; time-kill curve): primarily dependent on incubation time

CCCCN(CCCC)c1ccc(/C=C/C(=O)c2ccc(CN3CCN(C)CC3)cc2)cc1 [A025, (E)-3-(4Dibutylamino-phenyl)-1-[4-(4-methyl-piperazin-1-ylmethyl)-phenyl]-propenone]
Inhibition of DHODH [1]: 26%
MIC, A: Staphylococcus aureus ATCC29213 [6]: 9.4 µM (≈ 4.21 µg/mL)
MIC, H: Eschericia coli ESS (Eschericia coli ESS): 75.0 µM (≈ 33.6 µg/mL)
MIC, F: Streptococcus pneumoniae #998 [8]: 37.5 µM (≈ 16.8 µg/mL)
potency against Gram-positive pathogens in comparison with Licochalcone A [3]: increased potency
MIC, D: Enterococcus faecalis ATCC29212 [9]: 9.4 µM (≈ 4.21 µg/mL)
MIC, B: Staphylococcus aureus ATCC33591 [10]: 9.4 µM (≈ 4.21 µg/mL)
MIC, C: Staphylococcus intermedius #2357 [11]: 9.4 µM (≈ 4.21 µg/mL)
MIC, E: Enterococcus faecium #17501 [12]: 9.4 µM (≈ 4.21 µg/mL)

CN1CCN(Cc2ccccc2C(=O)/C=C/c2ccc(Cl)cc2Cl)CC1 [A026, (E)-3-(2,4-Dichloro-phenyl)-1-[2-(4-methyl-piperazin-1-ylmethyl)-phenyl]-propenone]
activity against anaerobic bacteria [5]: activity against all microorganisms within the test panel

CCCCN(CCCC)c1ccc(/C=C/C(=O)c2ccccc2CN2CCN(C)CC2)cc1 [A031, (E)-3-(4-Dibutylamino-phenyl)-1-[2-(4-methyl-piperazin-1-ylmethyl)-phenyl]-propenone]
activity against the ESS strain of E. coli (Eschericia coli ESS): considerable activity
bactericidal or bacteriostatic action (time-kill curve) (S. aureus ATCC29213): bactericidal
MIC (S. aureus ATCC29213): 9.4 µM (≈ 4.21 µg/mL)

C=CC(C)(C)c1ccc(OC)c(/C=C/C(=O)c2ccccc2CN(C)C)c1 [A034, (E)-3-[5-(1,1-Dimethyl-allyl)-2-methoxy-phenyl]-1-(2-dimethylaminomethyl-phenyl)-propenone]
IC50 (L. major promastigotes): 900 nM
activity against anaerobic bacteria [5]: activity against all microorganisms within the test panel

CN(Cc1ccccc1C(=O)/C=C/c1ccc(Cl)cc1Cl)C(C)(C)C [A035, (E)-1-{2-[(tert-Butyl-methyl-amino)-methyl]-phenyl}-3-(2,4-dichloro-phenyl)-propenone]
Inhibition of DHODH [1]: 26%
IC50 [2]: 900 nM

O=C(/C=C/c1ccc(Cl)cc1Cl)c1ccccc1CN1CCOCC1 [A037, (E)-3-(2,4-Dichloro-phenyl)-1-(2-morpholin-4-ylmethyl-phenyl)-propenone]
activity against anaerobic bacteria [5]: activity against all microorganisms within the test panel

CN(C)CCN(C)Cc1ccccc1C(=O)/C=C/c1ccc(Cl)cc1Cl [A038, (E)-3-(2,4-Dichloro-phenyl)-1-(2-{[(2-dimethylamino-ethyl)-methyl-amino]-methyl}-phenyl)-propenone]
IC50 (L. major promastigotes): 800 nM
Inhibition of DHODH [1]: 22%
activity against anaerobic bacteria [5]: activity against all microorganisms within the test panel

O=C(/C=C/c1ccc(Cl)cc1Cl)c1ccccc1CN1CCNCC1 [A048, (E)-3-(2,4-Dichloro-phenyl)-1-(2-piperazin-1-ylmethyl-phenyl)-propenone]
bioavailability (Pharmacokinetic studies; mice): 34%

CCN(CC)Cc1cccc(C(=O)/C=C/c2ccc(Cl)cc2Cl)c1 [A063, (E)-3-(2,4-Dichloro-phenyl)-1-(3-diethylaminomethyl-phenyl)-propenone]
IC50 (L. major promastigotes): 900 nM
activity against anaerobic bacteria [5]: activity against all microorganisms within the test panel

CN(C)Cc1cccc(/C=C/C(=O)c2ccccc2CN(C)C)c1 [A066, (E)-3-(3-Dimethylaminomethyl-phenyl)-1-(2-dimethylaminomethyl-phenyl)-propenone]
IC50 [2]: 900 nM
Solubility in aqueous buffer at pH 7.4 ([4]; 0.3 M phosphate buffer, 24 hours): 7.4 mg/ml

CN(C)Cc1ccccc1C(=O)/C=C/c1cccc(Nc2cccnc2)c1 [A090, (E)-1-(2-Dimethylaminomethyl-phenyl)-3-[3-(pyridin-3-ylamino)-phenyl]-propenone]
activity against anaerobic bacteria [5]: activity against all microorganisms within the test panel

COc1ccc(-c2ccccc2)cc1/C=C/C(=O)c1cccc(CN(C)C)c1 [A100, (E)-1-(3-Dimethylaminomethyl-phenyl)-3-(4-methoxy-biphenyl-3-yl)-propenone]
IC50 (L. major promastigotes): 200 nM

C=CC(C)(C)c1cc(/C=C/C(=O)c2ccc(O)cc2)c(OC)cc1O [LicA, Licochalcone A, reference compound]
IC50 (L. major promastigotes): 4600 nM
Inhibition of DHODH [1]: 25%
MIC, A: Staphylococcus aureus ATCC29213 [6]: 37.5 µM (≈ 12.7 µg/mL)
metabolic turn-over in vitro [7]: 100%
Metabolic turn-over (rat) in vitro [7]: 100%
MIC, H: Eschericia coli ESS (Eschericia coli ESS): 300.0 µM (≈ 102 µg/mL)
MIC, F: Streptococcus pneumoniae #998 [8]: 75.0 µM (≈ 25.4 µg/mL)
IC50 [2]: 6400 nM
activity against Gram-negative bacterium Eschericia coli [3]: only modest or no activity
activity against common pathogenic Gram-positive non-fastidious bacteria ([3]; also against antibiotic resistant bacteria): moderate bactericidal activity
MIC, D: Enterococcus faecalis ATCC29212 [9]: 37.5 µM (≈ 12.7 µg/mL)
MIC, B: Staphylococcus aureus ATCC33591 [10]: 37.5 µM (≈ 12.7 µg/mL)
aqueous solubility ([4]; pH 7.4): approximately 0.01 mg/ml
t½ in vivo (Pharmacokinetic studies; in vivo, species not given): 10 min
MIC, C: Staphylococcus intermedius #2357 [11]: 37.5 µM (≈ 12.7 µg/mL)
MIC, E: Enterococcus faecium #17501 [12]: 37.5 µM (≈ 12.7 µg/mL)
